Reference: patent publication US20150233949A1, “DETECTION AND MODULATION OF CYTOCHROME C ACETYLATION” (President and Fellows of Harvard College, priority 2008, published 2015)

Legend:
[1] = system: primary cerebellar granule neurons; experiment: Cell survival measurement (MTT assay) after kainic acid treatment; format: cell-based, mouse; conditions: T3-/- versus wild-type neurons; 50 uM kainic acid, 4 hr and 24 hrs; FIG. 9
Description: SH-SY5Y cells were cultured in Dulbecco's Modified Eagle's Medium (DMEM) supplemented with 10% Fetal Calf Serum (FCS). SH-SY5Y cells were transfected with Lipofectamine 2000 (Invitrogen, Carlsbad, Calif.). Granule neuron cultures were prepared from cerebella of postnatal day 5 mouse pups. Neurons were placed on polyornithine-coated 96-well plates and grown in Basal Medium Eagle (BME) (Sigma, St. Louis, Mo.) supplemented with 10% calf serum (Hyclone Laboratories, Logan, Utah), 25 mM KCl, 2 mM glutamine, penicillin, and streptomycin. One day after cultures were prepared they were treated with 10 μM of the antimitotic agent cytosine-D-arabinofuranoside (Sigma, St. Louis, Mo.) to prevent the proliferation of non-neuronal cells.
The resistance to kainic acid of primary granule neurons derived from WT and SIRT3 null mice was quantified as the percentage of live cells after a 4 hr and 24 hrs treatment with 50 uM Kainic acid. The quantitation of dead cells upon Kainic acid treatment was carried out using the MTT assay was performed using CellTiter 96 Nonradioactive Cell Proliferation Assay kit (Promega).

129/Sv mice = experiment: Seizure induction by kainic acid injection in mice; format: in vivo, mouse; conditions: 30 mg/kg KA i.p.; WT and SIRT3 KO, female and male mice
Description: Littermate 129/Sv (6-8 weeks old) mice were used for the studies. SIRT3−/− mice were in a 129/sv background. Mice were housed under controlled temperature (25° C.) and light, and fed normal chow.
(§1) To induce seizures, both WT female (n=6) and KO female (n=5) mice and WT male (n=5) and KO male (n=6) mice were injected i.p. with 30 mg/kg KA.

[2] = system: hippocampus and amygdala neurons; experiment: Loss of hippocampus and amygdala neurons after kainic acid injections; format: in vivo, mouse; conditions: FIG. 14
Description: as §1
The effect of kainic acid injections on memory function was also investigated by examining hippocampus and amygdala neurons.

C=C(C)[C@H]1CN[C@H](C(=O)O)[C@H]1CC(=O)O [kainic acid]
cell survival [1]: reduced cell survival | seizures (129/Sv mice): caused seizures in all mice | loss of hippocampus and amygdala neurons [2]: loss of hippocampus and amygdala neurons
